# Measurements published in paper PMC11491004, “CHF6523 data suggest that the phosphoinositide 3-kinase delta isoform is not a suitable target for the management of COPD” (Respiratory Research, 2024).
# Legend:
# [1] = in vivo
# Experimental: Safety and tolerability were evaluated throughout the study in terms of the occurrence of adverse events, blood chemistry, haematology and urinalysis, vital signs, and 12-lead electrocardiograms. […] Throughout the study, patients were permitted to use salbutamol as rescue medication, but not within 6 h prior to any spirometry assessment – any rescue medication intake was also captured in the daily diary.
# The safety set, used in the analysis of all safety variables, was all randomised patients who received at least one dose of study drug. […] Given the cross-over design, the inclusion of patients in the analysis sets was defined on a per-period basis.
# [2] = COPD Assessment Test and rescue medication use; format: in vivo, human
# Experimental: (§1) All assessment timings were based on the morning dose. Pre-dose on Days 1 and 28 of each treatment period, blood samples were taken for pharmacokinetic analyses, followed by forced oscillation (including slow vital capacity manoeuvres for inspiratory capacity [IC] and vital capacity [VC]), spirometry (forced expiratory volume in 1 s [FEV1] and forced vital capacity [FVC]), and the COPD Assessment Test (CAT). Blood samples were also taken up to 12 h post-dose on Days 1 and 28 for pharmacokinetic analyses, with blood samples for biomarker assessment pre-dose on Day 1 and 2 h post-dose on Day 28, and spirometry pre-dose on Days 20 and 24. Sputum was induced prior to each treatment period for baseline determination of biomarkers, and post-dose on Day 20 for collection of phosphatidylinositol (3,4,5)-trisphosphate (PIP3), and on Days 24 and 28 for collection of biomarkers.
# Fold-change from baseline in cell counts, target biomarkers in sputum and blood, and PIP3 were log-transformed and analysed using an analysis of covariance (ANCOVA) model, with treatment, patient, and period as fixed effects, and baseline value as covariate. Changes from baseline in spirometry, forced oscillation and CAT endpoints were analysed using a similar ANCOVA model, but without log transformation. Rescue medication data were analysed using an analysis of variance model, including treatment, period and patient as fixed effects. Other data, including the proportion of days on which patients coughed and the cough VAS results, are presented descriptively only. Further details, including the transcriptomics, mass-spectrometry and Olink proteomics, bioinformatics and multi-omic data integration are in the supplement.
# [3] = test system: target biomarkers in plasma; assay: Target biomarkers in plasma; format: in vivo, human; conditions: p < 0.05
# Experimental: as §1, with “Sputum was induced prior to each treatment period for baseline determination of biomarkers, and post-dose on Day 20 for collection of phosphatidylinositol (3,4,5)-trisphosphate (PIP3), and on Days 24 and 28 for collection of biomarkers.” left out
# Fold-change from baseline in cell counts, target biomarkers in sputum and blood, and PIP3 were log-transformed and analysed using an analysis of covariance (ANCOVA) model, with treatment, patient, and period as fixed effects, and baseline value as covariate. Changes from baseline in spirometry, forced oscillation and CAT endpoints were analysed using a similar ANCOVA model, but without log transformation. Rescue medication data were analysed using an analysis of variance model, including treatment, period and patient as fixed effects. […]
# proteins in sputum = assay: Tandem mass tag mass spectrometry proteomics in sputum; format: in vivo, human; conditions: FDR < 0.05, mixed effect modelling
# Experimental: Sputum samples were weighed and solubilised with sodium dodecyl sulphate and dithiothreitol, and were incubated for 10 min at 95°C. First, quantification was performed by the Bradford Assay, with 50 μg of each sample digested with Trypsin following the S-trap micro protocol; 25 μg of each sample was dried, and reconstituted with TMT10plex (Thermo Scientific) following the manufacturer’s instructions. The 98 samples were divided into eleven TMT10plexes groups; 10 μg of each sample were combined, taking into account the peptide quantification, and after combining samples were desalted.
# Samples were analysed with a Thermo Scientific Dionex Ultimate 3000 nano RSLC coupled to a Orbitrap Fusion Lumos mass spectrometer (Thermo Scientific) fitted with nanoESI source. Peptides were separated on a EasySpray (75 µm x 500 mm, 2 μm, 100Å) (Thermo Scientific) heated to 40°C at 300 nL/min. The mass spectrometer was operated in data-dependent acquisition (DDA) mode. […] For the MS3 analyses for TMT quantification, multiple fragment ions from the previous MS2 scan (SPS ions) were co- selected and fragmented by HCD.
# Database searches were performed with Proteome Discoverer v2.4 software (Thermo Scientific) using Sequest HT search engine and UniProt Homo Sapiens (2023) and contaminants. […] TMT reporter ions intensities were used for protein quantification. […]
# in-vivo guinea pig model = assay: In-vivo guinea pig cough model
smiles,measurement,setting,value
C[C@@H](c1oc(=O)c2ccccc2c1-c1cccc(CN2CCN(C)CC2)c1)n1nc(-c2cncc(O)c2)c2c(N)ncnc21 [CHF6523],Adverse events leading to study discontinuation,[1],6 (14.3%) Patients (%)
same,Adverse events leading to study discontinuation: Cough,[1],5 (11.9%) Patients (%)
same,Adverse events: Abnormal product taste,[1],14 (33.3%) Patients (%)
same,Adverse events: COPD exacerbation,[1],4 (9.5%) Patients (%)
same,Adverse events: Chest discomfort,[1],9 (21.4%) Patients (%)
same,Adverse events: Dyspnoea,[1],9 (21.4%) Patients (%)
same,Adverse events: Headache,[1],5 (11.9%) Patients (%)
same,Adverse events: Increased sputum,[1],5 (11.9%) Patients (%)
same,CHF6523–placebo differences in the other safety evaluations,[1],no clinically relevant
same,Serious adverse events,[1],2 (4.8%) Patients (%)
same,Serious treatment-related adverse events,[1],0 Patients (%)
same,Severe adverse events,[1],11 (26.2%) Patients (%)
same,Severe adverse events: Cough,[1],7 (16.7%) Patients (%)
same,Treatment-related adverse events,[1],40 (95.2%) Patients (%)
same,Treatment-related adverse events: Chest discomfort,[1],9 (21.4%) Patients (%)
same,Treatment-related adverse events: Cough,[1],40 (95.2%) Patients (%)
same,Treatment-related adverse events: Dyspnoea,[1],9 (21.4%) Patients (%)
same,Treatment-related adverse events: Headache,[1],3 (7.1%) Patients (%)
same,Treatment-related adverse events: Increased sputum,[1],5 (11.9%) Patients (%)
same,Treatment-related adverse events: Product taste abnormal,[1],14 (33.3%) Patients (%)
same,"Rescue medication use, adjusted mean (95% CI)",[2]; 28-day treatment period,"1.69 (1.40, 1.99) Puffs/day"
same,"Rescue medication use, adjusted mean difference CHF6523 vs placebo (95% CI)",[2]; 28-day treatment period,"0.28 (–0.14, 0.70); p=0.190 Puffs/day"
same,"Rescue medication use: days with no use, adjusted mean (95% CI)",[2]; 28-day treatment period,"49.0 (40.3, 57.7) %"
same,"Rescue medication use: days with no use, adjusted mean difference CHF6523 vs placebo (95% CI)",[2]; 28-day treatment period,"–5.7 (–17.9, 6.6); p=0.354%"
same,"COPD Assessment Test total score, adjusted mean difference CHF6523 vs placebo (95% CI)",[2]; Day 28,"0.6 (–0.7, 2.0); p=0.340"
same,CHF6523–placebo differences in the target biomarkers in plasma,[3],no statistically significant
same,"Proteins significantly modulated by treatment, of the 413 evaluated",proteins in sputum,only BPI fold-containing family B member 1 (BPIFB1) was significantly modulated by treatment
same,"Coughing in guinea pig, formulation with alternative salts",in-vivo guinea pig model; formulation changed to use alternative salts,ineffective in influencing cough
same,Coughing in guinea pig,"in-vivo guinea pig model; in-vivo guinea pig model, salt form used in the study",trigger coughing
